From US11034672B1, “Tyrosine kinase inhibitor compositions, methods of making and methods of use” (Black Diamond Therapeutics, Inc., priority 2018, dated 2021) come the findings set out here.

Common to all, as to type: cell-based
In assay [1] the target is T1, HER2 YVMA (Homo sapiens, UniProt P04626, INS775YVMA).
T1 construct: expressed in transfected cells; host or cells: BaF3 (murine pro-B)
Description: Activity for inhibiting HER2 (Table B), HER2 YVMA. The note with it: read-out: HER2 YVMA, potency code (IC50). The protocol: (§1) EC50 values were determined with the same application.

The target in assay [2] is T2, EGFR WT (Homo sapiens, UniProt P00533). Description: BaF3 cell proliferation assay, EGFR WT (Table A). The note with it: potency code, 3 days, CellTiterGlo, read-out: EGFR WT (Activity for Inhibiting EGFR). The protocol:
(§2) Retroviral Production: EGFR mutants were subcloned into pMXs-IRES-Blasticidin (RTV-016, Cell Biolabs, San Diego, Calif.). Retroviral expression vector retrovirus was produced by transient transfection of HEK 293T cells with the retroviral EGFR mutant expression vector pMXs-IRES-Blasticidin (RTV-016, Cell Biolabs), pCMV-Gag-Pol vector and pCMV-VSV-G-Envelope vector. Briefly, HEK 293T/17 cells were plated in 100 mm collagen coated plate (354450, Corning Life Sciences, Tewksbury, Mass.) (4×10^5 per plate) and incubated overnight. The next day, retroviral plasmids (3 μg of EGFR mutant, 1.0 μg of pCMV-Gag-Pol and 0.5 μg pCMV-VSV-G) were mixed in 500 μl of Optimem (31985, Life Technologies). The mixture was incubated at room temperature for 5 min and then added to Optimem containing transfection reagent Lipofectamine (11668, Invitrogen) and incubated for 20 minutes. Mixture was then added dropwise to HEK 293T cells. The next day the medium was replaced with fresh culture medium and retrovirus was harvested @ 24 and 48 hrs.
(§3) Generation of EGFR mutant stable cell lines: BaF3 cells (1.5E5 cells) were infected with 1 ml of viral supernatant supplemented with 8 μg/ml polybrene by centrifuging for 30 min at 1000 rpm. Cells were placed in a 37° C. incubator overnight. Cells were then spun for 5 minutes to pellet the cells. Supernatant was removed and cells re-infected a fresh 1 ml of viral supernatant supplemented with 8 μg/ml polybrene by centrifuging for 30 min at 1000 rpm. Cells were placed in 37° C. incubator overnight. […] After 48 hours cells were selected for retroviral infection in 10 μg/ml Blasticidin for one week. Blasticidin resistant populations were washed twice in phosphate buffered saline before plating in media lacking IL-3 to select for IL-3 independent growth.
as §1
(In ATP-based viability assays light output follows the ATP content of the culture.)

The target of assay [3] is T3, EGFR V3 (Homo sapiens, UniProt P00533, DELINS30-297G).
T3 construct: expressed in transfected cells; host or cells: BaF3 (murine pro-B), retroviral pMXs-IRES-Blasticidin
Description: BaF3 cell proliferation assay, EGFR V3 (Table A). The note with it: potency code, 3 days, CellTiterGlo, read-out: EGFR V3 (Activity for Inhibiting EGFR). How it is done:
as §2, §3, §1

Assay [4] deals with T3, EGFR V3. Description: Activity for inhibiting EGFR (Table A), EGFR V3 (EGFR-Viii). Particulars: read-out: EGFR V3, potency code (IC50).
Assay [5] deals with T2, EGFR WT. Description: Activity for inhibiting EGFR (Table A), EGFR WT. The note with it: read-out: EGFR WT, potency code (IC50).
Assay [6] deals with T1, HER2 YVMA. Description: BaF3 cell proliferation assay, HER2 YVMA (Table B). Particulars: potency code, 3 days, CellTiterGlo, read-out: HER2 YVMA (Activity for Inhibiting HER2).
Assay [7] addresses T4, HER2 S310F (Homo sapiens, UniProt P04626, S310F).
T4 construct: expressed in transfected cells; host or cells: BaF3 (murine pro-B)
Description: BaF3 cell proliferation assay, HER2 S310F (Table B). Particulars: potency code, 3 days, CellTiterGlo, read-out: HER2 S310F (Activity for Inhibiting HER2).

In assay [8] the target is T4, HER2 S310F. Nature of the assay: Activity for inhibiting HER2 (Table B), HER2 S310F. The note with it: read-out: HER2 S310F, potency code (IC50). How it is done: as §1

T3 sequence (P00533 with tags, fused parts or gaps DELINS30-297G): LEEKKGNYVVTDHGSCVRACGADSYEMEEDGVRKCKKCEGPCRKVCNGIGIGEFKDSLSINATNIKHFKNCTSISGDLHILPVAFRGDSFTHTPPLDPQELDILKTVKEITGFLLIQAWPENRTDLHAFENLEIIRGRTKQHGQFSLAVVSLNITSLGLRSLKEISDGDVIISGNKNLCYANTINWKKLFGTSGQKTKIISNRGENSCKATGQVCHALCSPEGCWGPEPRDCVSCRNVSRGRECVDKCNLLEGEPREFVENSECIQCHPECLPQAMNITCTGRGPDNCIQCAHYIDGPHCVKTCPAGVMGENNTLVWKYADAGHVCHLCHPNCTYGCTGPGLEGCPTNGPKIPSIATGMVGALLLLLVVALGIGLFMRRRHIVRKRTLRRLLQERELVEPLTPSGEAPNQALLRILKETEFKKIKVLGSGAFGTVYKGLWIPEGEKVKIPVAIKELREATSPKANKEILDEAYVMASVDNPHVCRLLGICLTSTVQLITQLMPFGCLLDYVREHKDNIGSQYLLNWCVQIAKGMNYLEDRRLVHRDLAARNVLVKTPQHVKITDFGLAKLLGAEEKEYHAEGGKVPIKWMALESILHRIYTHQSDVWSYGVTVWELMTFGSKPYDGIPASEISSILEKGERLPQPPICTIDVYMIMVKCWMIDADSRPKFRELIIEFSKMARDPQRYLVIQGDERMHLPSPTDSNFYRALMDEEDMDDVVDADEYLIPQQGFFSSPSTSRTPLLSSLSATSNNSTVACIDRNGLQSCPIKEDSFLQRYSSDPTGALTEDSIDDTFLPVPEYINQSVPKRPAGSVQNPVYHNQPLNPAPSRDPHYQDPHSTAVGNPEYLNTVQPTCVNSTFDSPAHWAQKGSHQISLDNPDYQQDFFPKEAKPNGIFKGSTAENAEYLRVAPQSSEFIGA
T4 sequence (P04626 23-1255 S310F): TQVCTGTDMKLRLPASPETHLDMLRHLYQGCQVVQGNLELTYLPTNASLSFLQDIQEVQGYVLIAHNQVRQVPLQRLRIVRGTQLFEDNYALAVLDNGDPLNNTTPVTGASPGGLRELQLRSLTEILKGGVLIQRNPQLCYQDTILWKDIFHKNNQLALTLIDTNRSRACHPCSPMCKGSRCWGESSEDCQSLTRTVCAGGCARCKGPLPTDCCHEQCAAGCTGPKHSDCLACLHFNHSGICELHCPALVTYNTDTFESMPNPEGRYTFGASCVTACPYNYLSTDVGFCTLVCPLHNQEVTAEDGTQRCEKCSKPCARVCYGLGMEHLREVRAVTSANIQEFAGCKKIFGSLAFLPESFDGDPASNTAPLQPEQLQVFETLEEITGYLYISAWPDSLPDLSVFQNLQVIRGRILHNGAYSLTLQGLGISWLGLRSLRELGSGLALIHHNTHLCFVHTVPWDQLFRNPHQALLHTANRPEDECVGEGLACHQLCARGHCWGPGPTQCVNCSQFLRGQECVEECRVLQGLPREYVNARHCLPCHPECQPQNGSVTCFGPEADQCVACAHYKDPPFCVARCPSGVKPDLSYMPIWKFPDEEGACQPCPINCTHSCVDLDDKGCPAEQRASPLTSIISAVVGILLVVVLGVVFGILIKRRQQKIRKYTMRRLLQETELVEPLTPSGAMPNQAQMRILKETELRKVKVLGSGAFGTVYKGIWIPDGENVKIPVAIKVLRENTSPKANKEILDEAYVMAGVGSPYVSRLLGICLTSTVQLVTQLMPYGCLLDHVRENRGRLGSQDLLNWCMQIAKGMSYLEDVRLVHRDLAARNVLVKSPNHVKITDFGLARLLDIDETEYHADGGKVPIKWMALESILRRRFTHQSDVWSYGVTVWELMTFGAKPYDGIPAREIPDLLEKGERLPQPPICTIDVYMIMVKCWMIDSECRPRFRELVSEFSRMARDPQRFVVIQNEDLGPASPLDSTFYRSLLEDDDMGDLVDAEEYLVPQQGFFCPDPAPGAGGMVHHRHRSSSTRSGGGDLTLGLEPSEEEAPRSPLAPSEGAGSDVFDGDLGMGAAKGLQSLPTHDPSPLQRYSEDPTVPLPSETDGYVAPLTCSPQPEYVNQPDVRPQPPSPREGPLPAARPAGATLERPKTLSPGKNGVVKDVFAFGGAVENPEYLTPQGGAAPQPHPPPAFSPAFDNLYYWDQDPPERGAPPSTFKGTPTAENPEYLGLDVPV
T2 sequence (P00533 25-1210 N540K): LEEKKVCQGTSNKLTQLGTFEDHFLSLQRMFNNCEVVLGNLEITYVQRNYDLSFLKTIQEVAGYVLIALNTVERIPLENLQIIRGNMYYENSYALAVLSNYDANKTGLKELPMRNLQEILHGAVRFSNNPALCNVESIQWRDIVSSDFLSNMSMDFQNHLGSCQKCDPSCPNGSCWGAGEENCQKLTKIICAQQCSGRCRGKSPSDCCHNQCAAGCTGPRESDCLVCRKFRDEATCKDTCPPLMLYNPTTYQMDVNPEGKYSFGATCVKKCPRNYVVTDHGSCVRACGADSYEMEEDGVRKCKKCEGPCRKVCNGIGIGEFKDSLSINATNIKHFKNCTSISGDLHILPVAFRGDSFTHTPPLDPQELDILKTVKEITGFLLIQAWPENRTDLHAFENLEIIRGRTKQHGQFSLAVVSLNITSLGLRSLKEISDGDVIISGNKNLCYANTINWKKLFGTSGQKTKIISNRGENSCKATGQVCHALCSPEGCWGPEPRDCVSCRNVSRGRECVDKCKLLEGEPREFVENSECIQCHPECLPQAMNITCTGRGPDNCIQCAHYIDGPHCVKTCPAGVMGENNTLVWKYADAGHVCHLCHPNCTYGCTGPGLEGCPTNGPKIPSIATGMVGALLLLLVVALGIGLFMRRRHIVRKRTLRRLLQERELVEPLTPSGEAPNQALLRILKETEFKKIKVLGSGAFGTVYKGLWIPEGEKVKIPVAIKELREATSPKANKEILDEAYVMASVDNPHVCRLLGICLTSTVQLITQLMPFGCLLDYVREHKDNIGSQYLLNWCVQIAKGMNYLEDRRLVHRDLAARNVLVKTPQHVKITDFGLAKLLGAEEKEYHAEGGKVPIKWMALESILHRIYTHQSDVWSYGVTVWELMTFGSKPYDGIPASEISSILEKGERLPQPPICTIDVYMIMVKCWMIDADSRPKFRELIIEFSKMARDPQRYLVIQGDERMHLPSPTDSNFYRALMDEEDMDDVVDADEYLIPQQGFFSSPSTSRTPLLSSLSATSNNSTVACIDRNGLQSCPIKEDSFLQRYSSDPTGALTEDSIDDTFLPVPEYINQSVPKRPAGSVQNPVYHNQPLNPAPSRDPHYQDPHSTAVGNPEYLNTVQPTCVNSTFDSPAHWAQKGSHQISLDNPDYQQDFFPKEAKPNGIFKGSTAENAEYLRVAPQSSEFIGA
T1 sequence (P04626 with tags, fused parts or gaps INS775YVMA): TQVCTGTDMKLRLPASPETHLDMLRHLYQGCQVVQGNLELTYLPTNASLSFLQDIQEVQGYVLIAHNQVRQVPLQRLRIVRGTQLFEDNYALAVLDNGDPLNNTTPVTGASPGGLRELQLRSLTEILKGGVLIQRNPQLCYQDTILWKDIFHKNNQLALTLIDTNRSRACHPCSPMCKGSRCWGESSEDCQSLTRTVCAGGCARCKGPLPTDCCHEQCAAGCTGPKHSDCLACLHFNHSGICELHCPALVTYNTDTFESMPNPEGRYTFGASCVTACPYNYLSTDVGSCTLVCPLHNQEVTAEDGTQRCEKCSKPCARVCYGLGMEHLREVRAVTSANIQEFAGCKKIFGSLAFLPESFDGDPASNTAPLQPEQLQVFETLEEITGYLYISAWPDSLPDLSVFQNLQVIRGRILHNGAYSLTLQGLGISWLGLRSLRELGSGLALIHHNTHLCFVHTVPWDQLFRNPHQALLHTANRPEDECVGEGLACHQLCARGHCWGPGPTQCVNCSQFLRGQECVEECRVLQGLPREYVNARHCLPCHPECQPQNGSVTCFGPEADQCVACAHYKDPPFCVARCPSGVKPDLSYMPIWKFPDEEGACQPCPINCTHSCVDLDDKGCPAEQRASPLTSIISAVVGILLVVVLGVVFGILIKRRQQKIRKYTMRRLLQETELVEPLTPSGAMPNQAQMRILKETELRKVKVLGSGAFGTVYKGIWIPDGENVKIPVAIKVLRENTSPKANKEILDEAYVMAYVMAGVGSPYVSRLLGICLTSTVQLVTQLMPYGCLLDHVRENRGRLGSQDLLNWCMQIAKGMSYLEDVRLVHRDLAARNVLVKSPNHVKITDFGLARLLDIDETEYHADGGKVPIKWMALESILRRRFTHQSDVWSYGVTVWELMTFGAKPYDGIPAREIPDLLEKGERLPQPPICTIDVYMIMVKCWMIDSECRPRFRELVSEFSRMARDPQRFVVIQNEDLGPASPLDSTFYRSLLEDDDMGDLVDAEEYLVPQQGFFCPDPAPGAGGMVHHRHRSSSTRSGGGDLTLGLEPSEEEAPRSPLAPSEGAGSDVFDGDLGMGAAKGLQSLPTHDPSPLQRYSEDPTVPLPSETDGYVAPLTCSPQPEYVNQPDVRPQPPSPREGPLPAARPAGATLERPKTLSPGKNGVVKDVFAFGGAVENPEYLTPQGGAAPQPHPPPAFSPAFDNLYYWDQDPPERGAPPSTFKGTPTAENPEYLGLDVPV

Regarding `C=CC(=O)Nc1cc2c(Nc3ccc(OCc4ccccn4)c(Cl)c3)ncnc2cc1C#C[C@H]1CCNC1` [compound 86, N-(4-((3-chloro-4-(pyridin-2-ylmethoxy)phenyl)amino)-7-(pyrrolidin-3-ylethynyl)quinazolin-6-yl)acrylamide], the IC50 on HER2 YVMA [1] was 100 to 200 nM; on EGFR WT [2], 500 to 1000 nM; on EGFR V3 [3], 100 to 200 nM; on EGFR V3 [4], 100 to 200 nM; at EGFR WT [5], 500 to 1000 nM; at HER2 YVMA [6] it was 100 to 200 nM. Further, the IC50 on HER2 S310F [7] and at HER2 S310F [8] was 20 to 30 nM in each case.

For the compound `C=CC(=O)Nc1cc2c(Nc3ccc(OCc4ccccn4)c(Cl)c3)ncnc2cc1C#C[C@@H]1CCCN1C` [compound 87, N-(4-((3-chloro-4-(pyridin-2-ylmethoxy)phenyl)amino)-7-((1-methylpyrrolidin-2-yl)ethynyl)quinazolin-6-yl)acrylamide], the IC50 at HER2 YVMA [1] was 200 to 300 nM; at EGFR WT [2], more than 1000 nM; at EGFR V3 [3], 100 to 200 nM; at EGFR V3 [4] it was 100 to 200 nM; at EGFR WT [5], more than 1000 nM; on HER2 YVMA [6] it was 200 to 300 nM. Also, the IC50 on HER2 S310F [7] and on HER2 S310F [8] was 30 to 50 nM in each case.

Take `C=CC(=O)Nc1cc2c(Nc3ccc(OCc4ccccn4)c(Cl)c3)ncnc2cc1C#CC(C)(C)NC` [compound 88, N-(4-((3-chloro-4-(pyridin-2-ylmethoxy)phenyl)amino)-7-(3-methyl-3-(methylamino)but-1-yn-1-yl)quinazolin-6-yl)acrylamide]: the IC50 lay in the range of 100 to 200 nM at HER2 YVMA [1]; 500 to 1000 nM at EGFR WT [2]; 30 to 50 nM at EGFR V3 [3]; 30 to 50 nM on EGFR V3 [4]; 500 to 1000 nM on EGFR WT [5]; 100 to 200 nM at HER2 YVMA [6]. The IC50 at HER2 S310F [7] and at HER2 S310F [8] was 10 to 20 nM each time.

Regarding `CC#CC(=O)Nc1cc2c(Nc3ccc(OCc4ccccn4)c(Cl)c3)ncnc2cc1C#CC(C)(C)N1CCN(C)CC1` [compound 89, N-(4-((3-chloro-4-(pyridin-2-ylmethoxy)phenyl)amino)-7-(3-methyl-3-(4-methylpiperazin-1-yl)but-1-yn-1-yl)quinazolin-6-yl)but-2-ynamide], the IC50 on HER2 YVMA [1] fell in the range of 50 to 100 nM; at EGFR WT [2], 50 to 100 nM; at EGFR V3 [3], 30 to 50 nM; at EGFR V3 [4] it was 30 to 50 nM; on EGFR WT [5], 50 to 100 nM; at HER2 YVMA [6] it was 50 to 100 nM. For the same compound, the IC50 at HER2 S310F [7] and at HER2 S310F [8] was 10 to 20 nM each time.

As to `C=CC(=O)Nc1cc2c(Nc3ccc(OCc4ccccn4)c(Cl)c3)ncnc2cc1OC[C@H]1COCCN1` [compound 90, N-(4-((3-chloro-4-(pyridin-2-ylmethoxy)phenyl)amino)-7-(morpholin-3-ylmethoxy)quinazolin-6-yl)acrylamide], the IC50 lay in the range of 100 to 200 nM on HER2 YVMA [1]; 500 to 1000 nM on EGFR WT [2]; 30 to 50 nM at EGFR V3 [3]; 30 to 50 nM at EGFR V3 [4]; 500 to 1000 nM on EGFR WT [5]; 100 to 200 nM at HER2 YVMA [6]. Besides, the IC50 on HER2 S310F [7] and at HER2 S310F [8] was 20 to 30 nM each time.

Turning to `C=CC(=O)Nc1cc2c(Nc3ccc(Oc4ccccc4)c(Cl)c3)ncnc2cc1O[C@@H]1CCN(C)C1` [compound 91, (R)-N-(4-((3-chloro-4-phenoxyphenyl)amino)-7-((1-methylpyrrolidin-3-yl)oxy)quinazolin-6-yl)acrylamide], the IC50 at HER2 YVMA [1] is 200 to 300 nM; on EGFR WT [2] it was 500 to 1000 nM; at EGFR V3 [3], 50 to 100 nM; on EGFR V3 [4], 50 to 100 nM; on EGFR WT [5], 500 to 1000 nM; at HER2 YVMA [6] it was 200 to 300 nM. The IC50 at HER2 S310F [7] and at HER2 S310F [8] was 30 to 50 nM throughout.

In the case of `C=CC(=O)Nc1cc2c(Nc3ccc(OCc4ccccn4)c(Cl)c3)ncnc2cc1OCCN1CCC2C1CCN2C` (stereo not drawn) [compound 92, N-(4-((3-chloro-4-(pyridin-2-ylmethoxy)phenyl)amino)-7-(2-(4-methylhexahydropyrrolo[3,2-b]pyrrol-1(2H)-yl)ethoxy)quinazolin-6-yl)acrylamide], the IC50 on HER2 YVMA [1] lay in the range of 100 to 200 nM; on EGFR WT [2], 100 to 200 nM; on EGFR V3 [3] it was 30 to 50 nM; on EGFR V3 [4] it was 30 to 50 nM; on EGFR WT [5] it was 100 to 200 nM; at HER2 YVMA [6], 100 to 200 nM. The IC50 on HER2 S310F [7] and on HER2 S310F [8] was 20 to 30 nM each time.

Consider `C=CC(=O)Nc1cc2c(Nc3ccc(OCc4ccccn4)c(Cl)c3)ncnc2cc1N1CC(N(C)C)C1` [compound 93, N-(4-((3-chloro-4-(pyridin-2-ylmethoxy)phenyl)amino)-7-(3-(dimethylamino)azetidin-1-yl)quinazolin-6-yl)acrylamide], for which the IC50 on HER2 YVMA [1] is more than 1000 nM; at EGFR WT [2], more than 1000 nM; on EGFR V3 [3], 200 to 300 nM; on EGFR V3 [4], 200 to 300 nM; on EGFR WT [5], more than 1000 nM; at HER2 YVMA [6], more than 1000 nM. The IC50 on HER2 S310F [7] and on HER2 S310F [8] was 500 to 1000 nM in each case.

For the compound `C=CC(=O)Nc1cc2c(Nc3ccc(OCc4ccccn4)c(Cl)c3)ncnc2cc1OCC(C)(C)N(C)C` [compound 94, N-(4-((3-chloro-4-(pyridin-2-ylmethoxy)phenyl)amino)-7-(2-(dimethylamino)-2-methylpropoxy)quinazolin-6-yl)acrylamide], the IC50 at HER2 YVMA [1] lay in the range of 300 to 500 nM; on EGFR WT [2] it was 300 to 500 nM; on EGFR V3 [3], 30 to 50 nM; at EGFR V3 [4], 30 to 50 nM; on EGFR WT [5], 300 to 500 nM; at HER2 YVMA [6] it was 300 to 500 nM. Further, the IC50 on HER2 S310F [7] and on HER2 S310F [8] was 30 to 50 nM in each case.

Turning to `C=CC(=O)Nc1cc2c(Nc3ccc(OCc4ccccn4)c(Cl)c3)ncnc2cc1OCC[C@H]1CCCN1C` [compound 95, N-(4-((3-chloro-4-(pyridin-2-ylmethoxy)phenyl)amino)-7-(2-(1-methylpyrrolidin-2-yl)ethoxy)quinazolin-6-yl)acrylamide], the IC50 at HER2 YVMA [1] was 30 to 50 nM; at EGFR WT [2] it was 100 to 200 nM; on EGFR V3 [3] it was 20 to 30 nM; on EGFR V3 [4], 20 to 30 nM; on EGFR WT [5], 100 to 200 nM; on HER2 YVMA [6] it was 30 to 50 nM. Moreover, the IC50 at HER2 S310F [7] and at HER2 S310F [8] was 5 to 10 nM throughout.

Take `C=CC(=O)Nc1cc2c(Nc3cnc(NCc4ccccn4)c(Cl)c3)ncnc2cc1OCCN1CCOCC1` [compound 97, N-(4-((5-chloro-6-((pyridin-2-ylmethyl)amino)pyridin-3-yl)amino)-7-(2-morpholinoethoxy)quinazolin-6-yl)acrylamide]: the IC50 at HER2 YVMA [1] is 500 to 1000 nM; on EGFR WT [2] it was 500 to 1000 nM; at EGFR V3 [3] it was 50 to 100 nM; on EGFR V3 [4], 50 to 100 nM; at EGFR WT [5], 500 to 1000 nM; on HER2 YVMA [6], 500 to 1000 nM. In addition, the IC50 at HER2 S310F [7] and on HER2 S310F [8] was 200 to 300 nM throughout.

As to `C=CC(=O)Nc1cc2c(Nc3ccc(OCc4ccccn4)c(Cl)c3)ncnc2cc1OCC1(CN(C)C)CC1` [compound 98, N-(4-((3-chloro-4-(pyridin-2-ylmethoxy)phenyl)amino)-7-((1-((dimethylamino)methyl)cyclopropyl)methoxy)quinazolin-6-yl)acrylamide], the IC50 lay within 200 to 300 nM at HER2 YVMA [1]; 200 to 300 nM at EGFR WT [2]; 30 to 50 nM at EGFR V3 [3]; 30 to 50 nM on EGFR V3 [4]; 200 to 300 nM on EGFR WT [5]; 200 to 300 nM on HER2 YVMA [6]. The IC50 at HER2 S310F [7] and on HER2 S310F [8] was 20 to 30 nM each time.
